# In patent US20240279294A1, “p53 VARIANT WITH IMPROVED LIQUID-LIQUID PHASE SEPARATION ABILITY AND ACTIVITY AND USE THEREOF” (Zhejiang University, priority 2023, published 2024):
# B1: LLPSE-p53 (SEQ ID NO.7): p53 in rat with added sequence (including linker) GGASGHHHHHHHHGGAGGGGRRRRRRKK (protein)
# chain: MEDSQSDMSIELPLSQETFSCLWKLLPPDDILPTTATGSPNSMEDLFLPQDVAELLEGPEEALQVSAPAAQEPGTEAPAPVAPASATPWPLSSSVPSQKTYQGNYGFHLGFLQSGTAKSVMCTYSISLNKLFCQLAKTCPVQLWVTSTPPPGTRVRAMAIYKKSQHMTEVVRRCPHHERCSDGDGLAPPQHLIRVEGNPYAEYLDDRQTFRHSVVVPYEPPEVGSDYTTIHYKYMCNSSCMGGMNRRPILTIITLEDSSGNLLGRDSFEVRVCACPGRDRRTEEENFRKKEEHCPELPPGSAKRALPTSTSSSPQQKKKPLDGEYFTLKIRGRERFEMFRELNEALELKDARAAEESGDSRAHSSYPKTKKGQSTSRHKKPMIKKVGPDSDGGASGHHHHHHHHGGAGGGGRRRRRRKK
# How the values were obtained:
# U-2OS cells = test: cell viability (CCK8), protein delivery combined with TAS-120 or IWR-1, U-2OS; type: cell-based, human; conditions: LLPSE-p53 (SEQ ID NO.3) protein 0.5-2 μM 24 h, then inhibitor 5-20 μM 24 h; compared with inhibitor plus buffer
# Procedure: The above system was sterilized with a 0.22 μm filter membrane. • 4. The complete medium in the well plate was sucked and discarded, and the above protein delivery system was added, the plate was then placed in an incubator for culture for 24 h. • 5. […] Cell viability was measured by a CCK8 method and with a M5 microplate reader. • 7. Graphpad5 software was used for data processing and one-way ANOVA method was used for statistical analysis.
# CDKN1A = CDKN1A luciferase reporter assay in H1299 cells; type: cell-based, human; conditions: H1299, plasmid co-transfected with CDKN1A reporter gene plasmid, 24 h; compared with WT-p53
# Procedure: Implementation was made as follows: • 1. Proper number of cells were seeded into a 96-well cell culture plate, plasmids and CDKN1A reporter gene plasmid were co-transformed when cell density reached 60-70%, the cells were then cultured in an incubator for 24 h. • 2. A chemiluminescence test was carried out with a luciferase reporting system test kit produced by Promega and a M5 microplate reader. • 3. Graphpad5 software was used for data processing and analysis.
# Implementation was made as follows: • 1. Proper number of cells were seeded into a 96-well cell culture plate, plasmids and CDKN1A reporter gene plasmid were co-transformed when cell density reached 60-70%, the cells were then cultured in an incubator for 24 h. • 2. A chemiluminescence assay was carried out with the luciferase reporting system kit produced by Promega and a M5 microplate reader. • 3. Graphpad5 software was used for data processing and analysis.
# Specific implementation steps can refer to Example 8.
molecule,measurement,setting,value
O=C(Nc1cccc2cccnc12)c1ccc(N2C(=O)[C@@H]3[C@H](C2=O)[C@@H]2C=C[C@H]3C2)cc1 [IWR-1],killing of U-2OS cells by the inhibitor when combined with LLPSE-p53 protein,U-2OS cells,significantly promotes TAS-120 or IWR-1 to kill U-2OS cells
B1,transactivation activity on CDKN1A,CDKN1A,significantly increases the transactivation activity of CDKN1A
